Tests used:
tibias of rats = conditions: titanium implants in tibias, daily into the abdominal cavity; cited from earlier work
bones of rats = conditions: calcium sulfate carrier disks, eight weeks, compared to control group; cited from earlier work
parietal bone of rabbits = conditions: parietal bone fractures, collagen sponges; cited from earlier work
jawbones of rats = conditions: jawbone fractures, gelatin sponges; cited from earlier work
[1] = Solubility in ethanol and ethanol/water mixtures; format: physicochemical

Row | Structure (SMILES) | bone density around the implant (tibias of rats) | bone density (bones of rats) | bone mineral density (bones of rats) | mineral content of the bones (bones of rats) | formation of new bone (parietal bone of rabbits) | bone density above that of the control group receiving no active ingredient (jawbones of rats) | formation of new bone in histological studies (jawbones of rats) | ethanol content of the ethanol/water mixture in which the substance dissolves [1] [% ethanol] | solubility in water
1 | CCC(C)(C)C(=O)O[C@H]1C[C@@H](C)C=C2C=CC(C)[C@H](CC[C@@H]3C[C@@H](O)CC(=O)O3)[C@H]21 (stereo in doubt) [simvastatin, [(1S,3R,7R,8S,8aR)-8-[2-[(2R,4R)-4-hydroxy-6-oxo-oxan-2-yl]ethyl]-3,7-dimethyl-1,2,3,7,8,8a-hexahydronaphthalen-1-yl] 2,2-dimethylbutanoate] | significant increase | significant increase | significant increase | significant increase | accelerated formation of new bone | 190-240% | enhanced formation of new bone was detectable | – | –
2 | CCC(C)(C)C(=O)O[C@H]1C[C@@H](C)C=C2C=C[C@H](C)[C@H](CC[C@@H](O)C[C@@H](O)CC(=O)O)[C@H]21 [open-chain acid form of simvastatin] | – | – | – | – | – | – | – | 25 | water-soluble
